Series [1] relates to NCI-H460 human lung tumor xenograft growing i.p. As to the kind of experiment: Survival of nude mice bearing i.p. NCI-H460 tumor xenograft. Format: in vivo. An excerpt:
A preclinical efficacy study was designed to evaluate the antitumor activity of the compounds of the present invention in comparison with topotecan (a first generation camptothecin already in clinical trials) as reference drug. The human tumor line NCI-H460, a non small cell lung carcinoma, was chosen because of the high expression of topoisomerase I, the known target of camptothecin drugs. This tumor model is relatively resistant to in vivo treatment with conventional cytotoxic agents (e.g., doxorubicin, cisplatin). Tumor cells were injected i.p. into nude mice (2.5×10^6 cell/mouse) of about 10 weeks and 3 days later the drugs were injected in the peritoneal cavity (10 ml/kg b.w.) to allow a direct contact of the drugs with tumor cells. Both topotecan and the compound of formula (I) described in Example 1 below, were delivered q4dx4 times. This schedule has been reported as optimal for camptothecin drugs in other preclinical studies. Mice were observed daily for death. The antitumor activity of the drugs was expressed as T/C %, i.e. the ratio between the median survival time of the drug-treated mice (T) and survival of the control untreated mice (C)×100. Treated mice, dead before the first control mouse or shortly after treatment with reduced body weight, were considered dead for drug toxicity. Mice still alive over 100 days after tumor cell inoculum were considered as long-term survivors (LTS). […]

Series [2] is described as follows: Antitumor activity by the oral route. Format: in vivo.
The mark [3] stands for this setting: Experiment 1, 10 mg/kg i.p. q4d x 4.
Where [4] appears, read: Experiment 1, 10 mg/kg i.p. q4d x 4, from day 3.
Where [5] appears, read: Experiment 2, 10 mg/kg i.p. q4d x 4.
The mark [6] stands for this setting: Experiment 2, 10 mg/kg i.p. q4d x 4, from day 3.
Setting [7] is: Experiment 2, 12 mg/kg i.p. q4d x 4.
Where [8] appears, read: Experiment 2, 12 mg/kg i.p. q4d x 4, from day 3.
Where [9] appears, read: Experiment 2, 14.4 mg/kg i.p. q4d x 4.
The mark [10] stands for this setting: Experiment 2, 14.4 mg/kg i.p. q4d x 4, from day 3.
The mark [11] stands for this setting: Experiment 1, 6.6 mg/kg i.p. q4d x 4.

On to `CC[C@@]1(O)C(=O)OCc2c1cc1n(c2=O)Cc2cc3c(CN(C)C)c(O)ccc3nc2-1` [Topotecan, reference compound], for which the “LTS (100 days)” value in series [1] (setting [3]) was 2/8; in series [1] (setting [5]), 1/7; in series [1] (setting [7]) it was 0/7; in series [1] (setting [9]), 0/7. In addition, the “No. of toxic/total no. mice” value was 0/8 in series [1] (setting [3]), 4/7 in series [1] (setting [7]) and 5/7 in series [1] (setting [9]). For the same molecule, the “% T/C” value is recorded as 215% in series [1] (setting [4]), 261% in series [1] (setting [6]), 77% in series [1] (setting [8]) and 77% in series [1] (setting [10]).
Take `CC[C@@]1(O)C(=O)OCc2c1cc1n(c2=O)Cc2c-1nc1ccccc1c2C#N` [Example 1, 20S-camptothecin-7-carbonitrile]: the “LTS (100 days)” value in series [1] (setting [11]) is on record as 2/8; in series [1] (setting [3]), 3/8; in series [1] (setting [5]), 1/7; in series [1] (setting [7]) it was 1/7; in series [1] (setting [9]) it was 2/7. Further, the “No. of toxic/total no. mice” value was 0/8 in series [1] (setting [11]); 0/8 in series [1] (setting [3]); 0/7 in series [1] (setting [5]); 0/7 in series [1] (setting [7]); 1/7 in series [1] (Experiment 2, 14.4 mg/kg i.p. q4d x 4, 14.4 mg/kg); 1 in series [1] (Experiment 2, 14.4 mg/kg i.p. q4d x 4, listed as CPT83, 14.4 mg/kg). Further, the “% T/C” value in series [1] (Experiment 1, 6.6 mg/kg i.p. q4d x 4, from day 3) is reported as 157%; in series [1] (setting [4]), 258%; in series [1] (setting [6]) it was 233%; in series [1] (setting [8]), 200%; in series [1] (setting [10]) it was 277%. The “Tolerability compared with topotecan” value in series [1] (NCI-H460 tumor xenograft) is given as “better tolerability than topotecan”. Also, in series [1] (at all doses tested), the T/C % values entry was “higher than 200%”. In series [1] (experiment 1, slowly-growing tumor), the “Drug efficacy compared with topotecan” value is on record as “superior to that of topotecan”. Moreover, the “Efficacy in terms of T/C % compared with topotecan” value in series [1] (experiment 2, rapidly growing tumor) is listed as “comparable to that of topotecan”. In series [2] (oral), the “Activity by the oral route” value is reported as “active”. In addition, the “Activity compared with topotecan” value in series [2] (oral CPT83 vs topotecan i.v. with optimal treatment schedule) is given as “more active than topotecan”.
